PubChem BioAssay AID1963424 (Molecular Pharmacology Branch, DTP, NCI, 2024)

Test system: 327498-153-R-J2-PDC complex spheroid growth, % test/control
Assay: Anticancer human tumor 327498-153-R-J2-PDC patient-derived uterine carcinosarcoma cell line growth inhibition [Asc]
Settings: for IC50: curve of first compound; for viability, T/C: stronger effect = lower value; active means viability on the fitted dose curve at most 10% of control; inactive means the rest
Procedure, shortened: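 Stromal components (HUVEC and hMSC) are co-assembled with the cancer cells into multicellular spheroids. Drugs are then added singly or paired, at concentrations falling by half-log increments from a clinically achievable maximum, capped at 10 microM without known Cmax.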

[1] = second compound 0.01 µM, first compound 0.00316 µM
[2] = second compound 0.01 µM, first compound 0.01 µM
[3] = second compound 0.01 µM, first compound 0.0316 µM
[4] = second compound 0.01 µM, first compound 0.1 µM
[5] = second compound 0.01 µM, first compound 0.316 µM
[6] = second compound 0.01 µM, first compound 1 µM
[7] = second compound 0.0316 µM, first compound 0.00316 µM
[8] = second compound 0.0316 µM, first compound 0.01 µM
[9] = second compound 0.0316 µM, first compound 0.0316 µM
[10] = second compound 0.0316 µM, first compound 0.1 µM
[11] = second compound 0.0316 µM, first compound 0.316 µM
[12] = second compound 0.0316 µM, first compound 1 µM
[13] = second compound 0.1 µM, first compound 0.00316 µM
[14] = second compound 0.1 µM, first compound 0.01 µM
[15] = second compound 0.1 µM, first compound 0.0316 µM
[16] = second compound 0.1 µM, first compound 0.1 µM
[17] = second compound 0.1 µM, first compound 0.316 µM
[18] = second compound 0.1 µM, first compound 1 µM
[19] = second compound 0.316 µM, first compound 0.00316 µM
[20] = second compound 0.316 µM, first compound 0.01 µM
[21] = second compound 0.316 µM, first compound 0.0316 µM
[22] = second compound 0.316 µM, first compound 0.1 µM
[23] = second compound 0.316 µM, first compound 0.316 µM
[24] = second compound 0.316 µM, first compound 1 µM
[25] = second compound 1 µM, first compound 0.00316 µM
[26] = second compound 1 µM, first compound 0.01 µM
[27] = second compound 1 µM, first compound 0.0316 µM
[28] = second compound 1 µM, first compound 0.1 µM
[29] = second compound 1 µM, first compound 0.316 µM
[30] = second compound 1 µM, first compound 1 µM
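Further: spheroids exposed to compound for 7 days after 3 days of growth.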
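Wherever viability, T/C is given: 100% = DMSO vehicle control wells.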

CCN1CCN(Cc2ccc(Nc3ncc(F)c(-c4cc(F)c5nc(C)n(C(C)C)c5c4)n3)nc2)CC1 + CNC(C)C(=O)NC1CN(S(=O)(=O)c2cccc(S(=O)(=O)N3CCC4CCC(C(=O)NC(c5ccccc5)c5ccccc5)N4C(=O)C(NC(=O)C(C)NC)C3)c2)CCC2CCC(C(=O)NC(c3ccccc3)c3ccccc3)N2C1=O
> 1000 nM: IC50 (second compound 0.01 µM) | IC50 (second compound 0.0316 µM) | IC50 (second compound 0.1 µM) | IC50 (second compound 0.316 µM) | IC50 (second compound 1 µM)
inactive: viability, T/C [1] 102% | viability, T/C [2] 110% | viability, T/C [3] 97.7% | viability, T/C [4] 88.9% | viability, T/C [5] 68.7% | viability, T/C [6] 73.8% | viability, T/C [7] 106% | viability, T/C [8] 104% | viability, T/C [9] 90.5% | viability, T/C [10] 82.4% | viability, T/C [11] 61.2% | viability, T/C [12] 65% | viability, T/C [13] 99.4% | viability, T/C [14] 104% | viability, T/C [15] 94% | viability, T/C [16] 76.7% | viability, T/C [17] 68% | viability, T/C [18] 68.2% | viability, T/C [19] 110% | viability, T/C [20] 100% | viability, T/C [21] 95.5% | viability, T/C [22] 75.9% | viability, T/C [23] 65.8% | viability, T/C [24] 64.4% | viability, T/C [25] 106% | viability, T/C [26] 115% | viability, T/C [27] 91.6% | viability, T/C [28] 82.1% | viability, T/C [29] 73% | viability, T/C [30] 54.7%

COc1c(OCCCN2CCOCC2)ccc2c3n(c(=NC(=O)c4cnc(N)nc4)nc12)CCN3 + CNC(C)C(=O)NC1CN(S(=O)(=O)c2cccc(S(=O)(=O)N3CCC4CCC(C(=O)NC(c5ccccc5)c5ccccc5)N4C(=O)C(NC(=O)C(C)NC)C3)c2)CCC2CCC(C(=O)NC(c3ccccc3)c3ccccc3)N2C1=O
135 nM: IC50 (second compound 0.1 µM)
inactive: viability, T/C [1] 93.4% | viability, T/C [2] 92.7% | viability, T/C [3] 92.3% | viability, T/C [4] 57.5% | viability, T/C [5] 27.6% | viability, T/C [7] 96.7% | viability, T/C [8] 94.9% | viability, T/C [9] 79.1% | viability, T/C [10] 62.1% | viability, T/C [11] 27.8% | viability, T/C [13] 106% | viability, T/C [14] 89.5% | viability, T/C [15] 85.7% | viability, T/C [16] 59% | viability, T/C [17] 25.7% | viability, T/C [19] 111% | viability, T/C [20] 110% | viability, T/C [21] 86.1% | viability, T/C [22] 59% | viability, T/C [23] 26.9% | viability, T/C [25] 111% | viability, T/C [26] 95.2% | viability, T/C [27] 85.1% | viability, T/C [28] 65% | viability, T/C [29] 24.8%
146 nM: IC50 (second compound 1 µM)
144 nM: IC50 (second compound 0.01 µM) | IC50 (second compound 0.0316 µM)
137 nM: IC50 (second compound 0.316 µM)
active: viability, T/C [6] 4.73% | viability, T/C [12] 3.85% | viability, T/C [18] 3.38% | viability, T/C [24] 2.23% | viability, T/C [30] 2.95%
